# Counter-ions that a name gives are not always drawn.
# Biological target: T1, recombinant JAK2 (Homo sapiens, UniProt O60674)
# T1 construct: purchased Upstate Cell Signaling Solutions
# Assay: IC50 value determinations for Jak2 kinase, luminescence-based kinase assay (Kinase-Glo)
# Assay type: biochemical
# Settings: Table 1
# T1 sequence (O60674 808-1132 limits assumed): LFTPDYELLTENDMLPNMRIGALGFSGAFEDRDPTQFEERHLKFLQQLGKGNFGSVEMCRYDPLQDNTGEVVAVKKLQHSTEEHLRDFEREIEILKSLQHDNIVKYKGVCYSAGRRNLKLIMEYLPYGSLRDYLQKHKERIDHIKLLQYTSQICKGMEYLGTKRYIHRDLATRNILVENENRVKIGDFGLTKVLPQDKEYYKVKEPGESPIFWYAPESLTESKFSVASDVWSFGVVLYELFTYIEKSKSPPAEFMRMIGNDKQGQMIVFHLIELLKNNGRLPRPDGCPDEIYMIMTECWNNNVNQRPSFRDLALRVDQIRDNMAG
row,Compound,IC50 [nM]
1,"Cc1cnc(Nc2ccc(N3CCN(C)CC3)cc2)nc1Nc1cc(C)c(Cl)c(C)c1 [drawing 361, N4-(4-chloro-3,5-dimethylphenyl)-5-methyl-N2-(4-(4-methylpiperazin-1-yl)phenyi)pyrimidine-2,4-diamine Hydrochloride]",38
2,"COc1cc(Nc2nc(Nc3ccc(OCCN4CCCC4)cc3)ncc2C)ccc1F [N4-(4-Fluoro-3-methoxy-phenyl)-5-methyl-N2-[4-(2-pyrrolidin-1-yl-ethoxy)-phenyl]-pyrimidine-2,4-diamine]",14.8
3,Cc1cnc(Nc2ccc(Cn3cccn3)cc2)nc1Nc1cccc(S(=O)(=O)NC(C)(C)C)c1 [N-tert-Butyl-3-[5-methyl-2-(4-pyrazol-1-ylmethyl-phenylamino)-pyrimidin-4-ylamino]-benzenesulfonamide],18.6
4,Cc1cnc(Nc2cccc(N3CCN(CCO)CC3)c2)nc1Nc1cccc(S(=O)(=O)NC(C)(C)C)c1 [N-tert-Butyl-3-(2-{3-[4-(2-hydroxy-ethyl)-piperazin-1-yl]-phenylamino}-[5-methyl-pyrimidin-4-ylamino]-benzenesulfonamide Hydrochloride],40.5
5,"COc1cc(Nc2nc(Nc3ccc(Cn4cccn4)cc3)ncc2C)ccc1Cl [N4-(4-Chloro-3-methoxy-phenyl)-5-methyl-N2-(4-pyrazol-1-ylmethyl-phenyl)-pyrimidine-2,4-diamine]",18.9
6,"Cc1cnc(Nc2ccc(OC3CCNCC3)cc2)nc1Nc1cccc(C(F)(F)F)c1C [5-Methyl-N4-(2-methyl-3-trifluoromethyl-phenyl)-N2-[4-(piperidin-4-yloxy)-phenyl]-pyrimidine-2,4-diamine]",52.9
7,"Cc1cnc(Nc2ccc(N3CCN(C)CC3)cc2)nc1Nc1cccc2c1OCO2 [N4-Benzo[1,3]dioxol-4-yl-5-methyl-N2-[4-(4-methyl-piperazin-1-yl)-phenyl]-pyrimidine-2,4-diamine]",14.2
8,"COc1cc(Nc2nc(Nc3ccc(N4CCNCC4)cc3)ncc2C)ccc1Cl [drawing 348, N4-(4-Chloro-3-methoxy-phenyl)-5-methyl-N2-(4-piperazin-1-yl-phenyl)-pyrimidine-2,4-diamine]",6.15
9,"Cc1cc(Nc2nc(Nc3ccc(OC4CCNCC4)cc3)ncc2C)ccc1Cl [N4-(4-Chloro-3-methyl-phenyl)-5-methyl-N2-[4-(piperidin-4-yloxy)-phenyl]-pyrimidine-2,4-diamine]",8.41
10,"Cc1cnc(Nc2ccc(OCCN3CCCC3)cc2)nc1Nc1cccc([N+](=O)[O-])c1 [N2-(4-(2-(pyrrolidin-1-yl)ethoxy)phenyl)-5-methyl-N4-(3-nitrophenyl)pyrimidine-2,4-diamine Hydrochloride]",61.1
11,Cc1cnc(Nc2ccc(OC3CCNCC3)cc2)nc1Nc1cccc(S(=O)(=O)NC(C)(C)C)c1 [N-tert-Butyl-3-(5-methyl-2-[4-(piperidin-4-yloxy)-phenylamino]-pyrimidin-4-ylamino}-benzenesulfonamide],7.3
12,"COc1cc(Nc2nc(Nc3ccc(OC4CCNCC4)cc3)ncc2C)ccc1Cl [drawing 349, N4-(4-Chloro-3-methoxy-phenyl)-5-methyl-N2-[4-(piperidin-4-yloxy)-phenyl]-pyrimidine-2,4-diamine]",4.14
13,"Cc1cnc(Nc2ccc(N3CCN(C)CC3)cc2)nc1Nc1cccc(C(F)(F)F)c1C [N4-(3-(trifluoromethyl)-2-methylphenyl)-5-methyl-N2-(4-(4-methylpiperazin-1-yl)phenyl)pyrimidine-2,4-diamine hydrochloride]",87.1
14,"COc1cccc(Nc2ccnc(Nc3ccc(OCCN4CCCC4)cc3)n2)c1C [N4-(3-Methoxy-2-methyl-phenyl)-N2-[4-(2-pyrrolidin-1-yl-ethoxy)-phenyl]-pyrimidine-2,4-diamine]",371
15,Cc1cnc(Nc2ccc(OCCN3CCCC3)cc2)nc1Nc1cccc(O)c1 [3-(2-(4-(2-(pyrrolidin-1-yl)ethoxy)phenylamino)-5-methylpyrimidin-4-ylamino)phenol Hydrochloride],203
16,Cc1cnc(Nc2ccc(N3CCN(C)CC3)cc2)nc1Nc1cccc(NC(=O)Nc2cccc(C(F)(F)F)c2)c1 [1-(3-{5-Methyl-2-[4-(4-methyl-piperazin-1-yl)-phenylamino]-pyrimidin-4-ylamino}-phenyl)-3-(3-trifluoromethyl-phenyl)-urea],126
17,"COc1cc(Nc2nc(Nc3ccc(OC4CCNCC4)cc3)ncc2C)cc(OC)c1 [N4-(3,5-dimethoxyphenyl)-5-methyl-N2-(4-(piperidin-4-yloxy)phenyl)pyrimidine-2,4-diamine trifluoroacetate]",137
18,Cc1cnc(Nc2ccc(OC3CCNCC3)cc2)nc1Nc1cccc(O)c1 [3-(2-(4-(piperidin-4-yloxy)phenylamino)-5-methylpyrimidin-4-ylamino)phenol],51.9
19,"COc1cc(Nc2nc(Nc3ccc(N4CCNCC4)nc3)ncc2C)ccc1Cl [N4-(4-Chloro-3-methoxy-phenyl)-5-methyl-N2-(6-piperazin-1-yl-pyridin-3-yl)-pyrimidine-2,4-diamine]",12.1

row,Compound,IC50 [nM]
1,"Cc1cnc(Nc2ccc(C(C)N3CCOCC3)cc2)nc1Nc1cccc(C(C)(C)C)c1 (stereo not shown) [N4-(3-tert-butylphenyl)-5-methyl-N2-(4-(1-morpholinoethyl)-phenyl)pyrimidine-2,4-diamine Hydrochloride]",19.9
2,"COc1ccc(Nc2ccnc(Nc3ccc(OCCN4CCCC4)cc3)n2)cc1 [N4-(4-Methoxy-phenyl)-N2-[4-(2-pyrrolidin-1-yl-ethoxy)-phenyl]-pyrimidine-2,4-diamine trifluoroacetate]",4330
3,Cc1cnc(Nc2ccc(C(=O)N3CCOCC3)cc2)nc1Nc1cccc(S(=O)(=O)NC(C)(C)C)c1 [N-tert-Butyl-3-{5-methyl-2-[4-(morpholine-4-carbonyl)-phenylamino]-pyrimidin-4-ylamino}-benzenesulfonamide],32.9
4,"COc1cc(Nc2ncc(C)c(Nc3cccc4c3OCO4)n2)ccc1OCCN1CCCC1 [N4-Benzo[1,3]dioxol-4-yl-N2-[3-methoxy-4-(2-pyrrolidin-1-yl-ethoxy)-phenyl]-5-methyl-pyrimidine-2,4-diamine]",9.34
5,"COc1cc(Nc2nc(Nc3ccc(S(=O)(=O)C4CCNCC4)cc3)ncc2C)ccc1Cl [N4-(4-Chloro-3-methoxy-phenyl)-5-methyl-N2-[4-(piperidine-4-sulfonyl)-phenyl]-pyrimidine-2,4-diamine]",13
6,"Cc1cnc(Nc2ccc(-n3cncn3)cc2)nc1Nc1cccc(S(=O)(=O)NC(C)(C)C)c1 [N-tert-Butyl-3-[5-methyl-2-(4-[1,2,4]triazol-1-yl-phenylamino)-pyrimidin-4-ylamino]-benzenesulfonamide]",41.4
7,Cc1cnc(Nc2ccc(OCCN3CCCC3)cc2)nc1Nc1ccc(C#N)c(Cl)c1 [4-(2-(4-(2-(pyrrolidin-1-yl)ethoxy)phenylamino)-5-methylpyrimidin-4-ylamino)-2-chlorobenzonitrile Hydrochloride],67.5
8,Cc1cnc(Nc2ccc(OC3CCNCC3)cc2)nc1Nc1cccc(C(=O)N2CCCC2)c1 [(3-{5-Methyl-2-[4-(piperidin-4-yloxy)-phenylamino]-pyrimidin-4-ylamino}-phenyl)-pyrrolidin-1-yl-methanone],113
9,CNS(=O)(=O)c1cccc(Nc2nc(Nc3ccc(N4CCN(C)CC4)cc3)ncc2C)c1 [N-Methyl-3-{5-methyl-2-[4-(4-methyl-piperazin-1-yl)-phenylamino]-pyrimidin-4-ylamino}-benzenesulfonamide],16.1
10,"Cc1cnc(Nc2ccc(Cn3cncn3)cc2)nc1Nc1cccc(S(=O)(=O)NC(C)(C)C)c1 [N-tert-Butyl-3-[5-methyl-2-(4-[1,2,4]triazol-1-ylmethyl-phenylamino)-pyrimidin-4-ylamino]-benzenesulfonamide]",35.4
11,Cc1cnc(Nc2ccc(CN3CCOCC3)cc2)nc1Nc1cccc(S(=O)(=O)NC(C)(C)C)c1 [N-tert-Butyl-3-[5-methyl-2-(4-morpholin-4-ylmethyl-phenylamino)-pyrimidin-4-ylamino]-benzenesulfonamide],12.5
12,"Cc1cnc(Nc2ccc(CN3CCNCC3)cc2)nc1Nc1ccc(Cl)c2[nH]ccc12 [N4-(7-chloro-1H-indol-4-yl)-5-methyl-N2-(4-((piperazin-1-yl)methyl)phenyl)pyrimidine-2,4-diamine Hydrochloride]",694
13,COc1cc(Nc2nc(Nc3ccc(OCCO)cc3)ncc2C)ccc1Cl [2-{4-[4-(4-Chloro-3-methoxy-phenylamino)-5-methyl-pyrimidin-2-ylamino]-phenoxy}-ethanol],9.14
14,CC(=O)Nc1cccc(Nc2nc(Nc3ccc(OC4CCNCC4)cc3)ncc2C)c1C [N-(2-Methyl-3-(5-methyl-2-[4-(piperidin-4-yloxy)-phenylamino]-pyrimidin-4-ylamino}-phenyl)-acetamide],146
15,Cc1cnc(Nc2cccc(CN3CCOCC3)c2)nc1Nc1cccc(S(=O)(=O)NC(C)(C)C)c1 [N-tert-Butyl-3-(5-methyl-2-(3-morpholin-4-ylmethyl-phenylamino)-pyrimidin-4-ylamino]-benzenesulfonamide],7.06
16,"Cc1ccc(Nc2nc(Nc3ccc(OCCN4CCCC4)cc3)ncc2C)cc1 [N2-(4-(2-(pyrrolidin-1-yl)ethoxy)phenyl)-5-methyl-N4-p-tolylpyrimidine-2,4-diamine Hydrochloride]",35.7
17,Cc1cnc(Nc2ccc(C(=O)N3CCCC3)cc2)nc1Nc1cccc(S(=O)(=O)NC(C)(C)C)c1 [N-tert-Butyl-3-{5-methyl-2-[4-(pyrrolidine-1-carbonyl)-phenylamino]-pyrimidin-4-ylamino}-benzenesulfonamide],33.5
18,Cc1cnc(Nc2ccc(Cc3ccncc3)cc2)nc1Nc1cccc(S(=O)(=O)NC(C)(C)C)c1 [N-tert-Butyl-3-[5-methyl-2-(4-pyridin-4-ylmethyl-phenylamino)-pyrimidin-4-ylamino]-benzenesulfonamide],80.7

# Same assay, conditions: Table 5, Initial Screening Hits for JAK2
row,Compound,IC50 [nM]
1,COc1cc(Nc2nc(Nc3cccc(OCCN4CCCC4)c3)ncc2C#N)c(Cl)cc1Cl [Compound 2],10500

# Same assay, conditions: Table 6
row,Compound,IC50 [nM]
1,COc1cccc(Nc2ccnc(Nc3ccc(OCCN4CCCC4)cc3)n2)c1 [Compound 4],105

# Same assay, conditions: Table 7, SAR for the P3 region
row,Compound,IC50 [nM]
1,COc1cccc(Nc2ccnc(Nc3ccc(OCCN4CCCC4)cc3)n2)c1 [Compound 4],105
2,COc1cc(Nc2nc(Nc3cccc(OCCN4CCCC4)c3)ncc2C#N)c(Cl)cc1Cl [Compound 2],10500
3,COc1ccc(Nc2ncc(C)c(Nc3cccc4c3OCO4)n2)cc1 [Compound 7],46

# Same assay, conditions: Table 8, SAR of the P4 region
row,Compound,IC50 [nM]
1,COc1cccc(Nc2ccnc(Nc3ccc(OCCN4CCCC4)cc3)n2)c1 [Compound 4],105

# — patent publication US8604042B2, “Bi-aryl meta-pyrimidine inhibitors of kinases” (TargeGen, Inc., priority 2005, dated 2013)
